Source: paper PMC10834624, “Estrogen receptor α interaction of zearalenone and its phase I metabolite α-zearalenol in combination with soy isoflavones in hERα-HeLa-9903 cells” (Mycotoxin Research, 2023)
Read-outs that look alike come from different tables or passages of the source.

Tests used:
[1] = system: hERα-HeLa-9903 cells; experiment: Sulforhodamine B (SRB) assay, cell protein amount; format: cell-based, human; settings: 10 µM 4-OH-TAM, 24 h
Protocol: The SRB assay was conducted immediately after the CTB assay. Following the removal of the remaining CTB solution the cells in each well were fixed with 10 µL of a 50% trichloroacetic acid solution in distilled water. The 96-well plates were placed for 1 h into the refrigerator at 4 °C. Upon this cold incubation, the plates were carefully rinsed twice with tap water and then left to dry in a dark surrounding. Once the plates had dried, 50 µL of the SRB solution was pipetted into each well. The dye was left to stain the proteins for 1 h, again in a dark setting at room temperature. Afterwards the dye was rinsed off twice with tap water and twice with a 1% acetic acid solution. […] Once the plates had dried, the SRB solution bound to the protein components of the cells was dissolved in 100 µL of an alkaline Tris base solution (0.30 g tris(hydroxymethyl-) aminomethane solved in 250 mL distilled water) by shaking for 5 min in the plate reader (Victor V3 1240 Multilabel Counter from Perkin Elmer (Waltham/MA, USA) or the Cytation 3 Cell Imaging Multi-Mode Reader from Biotek® (Winooski/VT Vermont, USA)). Subsequently, the absorbance was measured at 570 nm and as for the CTB; the final results were referred to the solvent control (0.1% DMSO) in percentage.

[2] = molecular target: T1, ERα (hERα-HeLa-9903 cells) (Homo sapiens, UniProt P03372); experiment: cell-based; format: cell-based; settings: for Luciferase induction: 1 nM E2=100%; for induced ERα-dependent luciferase expression in concentrations above: abstract; for concentration at which an increase in luciferase activity was initiated: discussion
T1 construct: host or cells: hERα-HeLa-9903 (modified human cervical HeLa cell line)
Protocol: The assays were performed in 96-well plates following the instructions of the manufacturer (Promega [2007]). Per well, 10,000 hERα-HeLa-9903 cells in assay medium were seeded and grown for 3 h. […] The substances were previously dissolved in DMSO in […] higher concentrations than the tested concentration, followed by dilution in the assay medium. In case of single substance testing and for the solvent control, DMSO was added to reach 0.1% in the final incubation solutions. Concentrations ranged from 0.001 to 100 nM in case of ZEN and its metabolites and 0.001 to 100 µM in case of ISF, with 1:10 dilution steps in between. […] All experiments were performed in technical triplicates and at least five independent biological replicates.
Following the 24-h incubation, the supernatants were discarded and 100 µL of a ONE-Glo™ EX luciferase incubation solution (1:1 dilution of OGL reagent and EMEM (5% CD-FBS)) was added and shaken for 5 min. Subsequently, 90 µL of the supernatant of each well was transferred to a new, white 96-well plate. The luminescence of the white plate was directly measured with a gain of 140 using the Victor V3 1240 Multilabel Counter from Perkin Elmer (Waltham/MA, USA) or the Cytation 3 Cell Imaging Multi-Mode Reader from Biotek® (Winooski/VT, USA).

[3] = system: hERα-HeLa-9903 cells
[4] = system: firefly luciferase encoding gene (hERα-HeLa-9903 cells); experiment: RT-qPCR of luciferase mRNA; format: cell-based, human; settings: 10 nM, 24 h
Protocol: For the RT-qPCR, cells (hERα-HeLa-9903) were seeded in assay medium in 12-well plates at a density of 150,000 cells and allowed to grow for 24 h. Incubation solutions contained 0.1% DMSO and the test compounds and compound mixtures at various concentrations. After the same incubation time as the OGL-assay (24 h), cells were washed and subsequently the total RNA was extracted following the RNeasy Mini Kit protocol from Qiagen. The following reverse transcription was performed according to the QuantiTect-Reverse-Transcription manual (Qiagen [2009]) to transcribe 1 µg RNA to cDNA. Then, RT-qPCR was performed using primers for the firefly luciferase encoding gene with the following oligonucleotide sequences for reverse primer 5′-[…]-3′ and forward primer 5′-[…]-3′, as well as the endogenous control primers delta-aminolevulinate synthase (1HS_ALAS1_1_SG, QT00073122), actin beta (Hs_ACTB_1_SG, QT00095431) and glyceraldehyde-3-phosphate dehydrogenase (Hs_GAPDH_1_SG, QT00079247) with SYBR green as fluorescent probe. The amplification the following setting was applied: 95 °C for 2 min, followed by 40 repetition cycles of: 95 °C (15 s), 55 °C (15 s), 72 °C (60 s). […] Quantification was performed according to Livak and Schmittgen ([2001]) using the 2-ΔΔCt method resulting in the depiction of fold-changes in comparison to the solvent control.

[5] = system: Ishikawa cells, expressing ERα and ERβ; settings: 0.001–0.01 nM with GEN, DAI or EQ 0.001–0.1 µM; ref Grgic et al. [2022]; cited from earlier work
[6] = single mycoestrogen 100 nM, 24 h

T1 sequence (P03372 whole entry): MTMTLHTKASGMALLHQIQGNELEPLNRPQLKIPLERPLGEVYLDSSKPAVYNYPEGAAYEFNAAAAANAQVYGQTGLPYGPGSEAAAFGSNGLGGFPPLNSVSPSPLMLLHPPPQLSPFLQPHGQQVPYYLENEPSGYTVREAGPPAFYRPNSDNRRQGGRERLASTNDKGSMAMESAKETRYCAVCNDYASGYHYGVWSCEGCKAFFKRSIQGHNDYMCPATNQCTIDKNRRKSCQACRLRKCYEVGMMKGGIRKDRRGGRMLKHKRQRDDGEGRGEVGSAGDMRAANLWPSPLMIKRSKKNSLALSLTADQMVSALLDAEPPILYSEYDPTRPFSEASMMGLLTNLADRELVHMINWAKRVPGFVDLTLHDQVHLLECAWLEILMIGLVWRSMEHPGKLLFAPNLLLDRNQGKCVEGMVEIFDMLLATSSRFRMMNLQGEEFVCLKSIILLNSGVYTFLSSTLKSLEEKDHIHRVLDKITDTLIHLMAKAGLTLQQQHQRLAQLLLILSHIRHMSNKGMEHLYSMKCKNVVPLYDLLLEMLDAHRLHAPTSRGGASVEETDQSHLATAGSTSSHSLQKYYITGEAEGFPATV

Compound: CC/C(=C(\c1ccc(O)cc1)c1ccc(OCCN(C)C)cc1)c1ccccc1 [4-OH-TAM, (Z)-4-hydroxytamoxifen]
- protein content (SRB) [1]: tendency to decrease the protein content

Compound: O=c1c(-c2ccc(O)cc2)coc2cc(O)ccc12 [DAI, daidzein]
- transcriptional activity compared to E2 after calculating the difference between 4-OH-TAM treated and untreated samples [2]: higher transcriptional activity
- metabolic activity (CTB) vs solvent control [3]: no significant difference was observed

Compound: Oc1ccc([C@H]2COc3cc(O)ccc3C2)cc1 [EQ, S-equol]
- EC50 ([2]; isoflavones, 24 h, read-out: EC50 (sigmoidal dose-response curve fit of luciferase induction)): 1600 ± 200 nM
- Luciferase induction ([2]; single isoflavone 10 μM, 24 h): 334%
- metabolic activity (CTB) vs solvent control [3]: no significant difference was observed

Compound: O=c1c(-c2ccc(O)cc2)coc2cc(O)cc(O)c12 [GEN, genistein]
- metabolic activity (CTB) vs solvent control [3]: no significant difference was observed

Compound: C[C@H]1CCCC(=O)CCC/C=C/c2cc(O)cc(O)c2C(=O)O1 [ZEN, zearalenone]
- EC50 [2]: 24.4 ± 0.4 nM
- induced ERα-dependent luciferase expression in concentrations above [2]: above 1 nM
- concentration at which an increase in luciferase activity was initiated [2]: 0.1 nM
- Luciferase induction [2, 6]: 86%
- luciferase mRNA levels [4]: induce luciferase mRNA levels significantly
- estrogenic response in combination compared to single substances [5]: significantly enhanced the estrogenic response

Compound: C[C@H]1CCC[C@H](O)CCC/C=C/c2cc(O)cc(O)c2C(=O)O1 [α-ZEL, α-zearalenol]
- potency to induce luciferase compared to ZEN ([2]; 0.01 to 10 nM): higher potency
- induced ERα-dependent luciferase expression in concentrations above [2]: > 10 pM
- concentration at which an increase in luciferase activity was initiated [2]: 0.01 nM
- EC50 ([2]; mycoestrogens, 24 h, read-out: EC50 (sigmoidal dose-response curve fit of luciferase induction)): 0.057 ± 0.004 nM
- Luciferase induction [2, 6]: 95%
- estrogenic response in combination compared to single substances [5]: significantly enhanced the estrogenic response

Compound: C[C@H]1CCC[C@H](O)CCCCCc2cc(O)cc(O)c2C(=O)O1 [α-zearalanol]
- estrogenic response in combination compared to single substances [5]: significantly enhanced the estrogenic response
